Results as given in paper PMC8906008 (Antiviral Research, 2022).
Read-outs that look alike come from different tables or passages of the source.

How the values were obtained:
SARS-CoV-2 nsp5 = settings: read-out: reported in vitro IC50; ref Ma et al., 2021; cited from earlier work
[1] = target: SARS-CoV-2 nsp5 (nsp4-5-6 WT) (Severe acute respiratory syndrome coronavirus 2, UniProt P0DTD1); test: cell-based; settings: for inhibition at 10 µM: HEK-293T
SARS-CoV-2 = test: microbe, parasite or virus in culture; format: cell-based
[2] = target: purified SARS-CoV-2 nsp5 protein (Severe acute respiratory syndrome coronavirus 2, UniProt P0DTD1); test: biochemical
[3] = read-out: Primary screen nsp5-WT RLU (%)
[4] = read-out: Secondary screen nsp5-WT RLU (%)

Compound	inhibition at 10 µM [1, 3] [%]	inhibition at 10 µM [1, 4] [%]	also measured
C1=C/COCc2cc(ccc2OCCN2CCCC2)Nc2nccc(n2)-c2cccc(c2)COC/1 [Compound #9, Pacritinib (SB1518)]	28.2	15.3 ± 1.3	–
CCOC(=O)C1=C(C)NC(C)=C(C(=O)OCC)C1c1ccccc1/C=C/C(=O)OC(C)(C)C [compound 3, Lacidipine]	10.2	8.9 ± 0.7	–
CC[C@@H]1C(=O)N(C)c2cnc(Nc3ccc(C(=O)N[C@H]4CC[C@H](N5CCN(CC6CC6)CC5)CC4)cc3OC)nc2N1C(C)C [compound 4, Volasertib (BI6727)]	83.9	114 ± 8.9	–
COc1cc(NC(=O)Nc2cccc(CNC(=O)O[C@H]3CCOC3)c2)ccc1-c1cnco1 [compound 5, Merimepodib]	46.1	39	IC50 [1]: < 50 µM; SI (selectivity index) (SARS-CoV-2; EC50 to CC50 ratio, A549-ACE2 cells): 1.5; EC50 (SARS-CoV-2; Severe acute respiratory syndrome coronavirus 2, A549-ACE2, read-out: EC50 inhibition of SARS-CoV-2 replication): 21 µM; IC50 [2]: > 600 µM; inhibition of nsp5 protease activity in vitro [2]: does not efficiently inhibit
Cc1cnc(Nc2ccc(OCCN3CCCC3)cc2)nc1Nc1cccc(S(=O)(=O)NC(C)(C)C)c1 [compound 6, Fedratinib (SAR302503)]	32.7	57.6 ± 8.6	–
Cc1sc2c(c1C)C(c1ccc(Cl)cc1)=N[C@@H](CC(=O)Nc1ccc(O)cc1)c1nnc(C)n1-2 [compound 7, OTX015]	31.8	31.5 ± 11	–
Cc1cnc(Nc2ccc(N3CCN(C)CC3)cc2)nc1Nc1cccc(S(=O)(=O)NC(C)(C)C)c1 [compound 8, TG101209]	–	–	Primary screen nsp5-WT RLU (%) [1]: 30.0%; Secondary screen nsp5-WT RLU (%) [1]: 34.9 ± 4.0%
O=C(Nc1c[nH]nc1-c1nc2ccc(CN3CCOCC3)cc2[nH]1)NC1CC1 [compound 10, AT9283]	24	14.7 ± 0.8	–
COCCOc1ccc2c(c1)ncn2-c1ccc2cccc(N3CCC(N)CC3)c2n1 [compound 12, CP 673451]	19.4	13.9 ± 0.9	–
CNCc1ccc(C)c(NC(=O)c2ccc(Nc3nc(-c4ccccc4)c4ccccc4n3)cc2)c1 [compound 16, BMS-833923 (XL139)]	16.4	16.2 ± 2.1	–
CC(C)(C)c1cnc(CSc2cnc(NC(=O)C3CCNCC3)s2)o1 [compound 17, SNS-032 (BMS-387032)]	15.7	10.7 ± 1.1	–
C=CC(=O)Nc1cccc(Nc2nc(Nc3ccc(N4CCN(C(C)=O)CC4)cc3OC)ncc2C(F)(F)F)c1 [compound 20, Rociletinib (CO-1686. AVL-301)]	13.3	9.7 ± 1.9	–
Cc1nc(Nc2ncc(C(=O)Nc3c(C)cccc3Cl)s2)cc(N2CCN(CCO)CC2)n1 [compound 21, Dasatinib (BMS-354825)]	11.6	10.7 ± 1.7	–
C=CC(=O)Nc1cc(Nc2nccc(-c3cn(C)c4ccccc34)n2)c(OC)cc1N(C)CCN(C)C [compound 23, Osimertinib (AZD9291)]	–	–	Primary screen nsp5-WT RLU (%) [1]: 10.1%; Secondary screen nsp5-WT RLU (%) [1]: 8.3 ± 2.3%
O=C(NC(Cc1cc(=O)[nH]c2ccccc12)C(=O)O)c1ccc(Cl)cc1 (stereo not drawn) [compound 43, Rebamipide]	–	-1.5 ± 0.5	–
CC(C)(C(=O)c1cccnc1)c1cccnc1 [compound 44, Metyrapone]	–	-1.4 ± 0.2	–
UNC2881 [compound 1]	–	–	Primary screen nsp5-WT RLU (%) [1]: 29.5%; Secondary screen nsp5-WT RLU (%) [1]: 18.2 ± 0.5%
